Columns and labels:
[1] = Oral absorption of CBD in rats; type: in vivo, Sprague drawly rats; conditions: gavage to the stomach, 12 mg/kg, plasma CBD by LC-MS
Experimental: A tablet of composition of 5A was diluted with water of about 40° C. before administration to the rats to obtain CBD concentration of 12 mg/ml and to obtain the cannabinoid oil-in-water emulsion. The emulsion was administered in gavage to the stomach of Sprague drawly rats weighing 220 gr to 250 gr at 12 mg/kg. Blood sample was obtained at various time points after the oral administration and plasma separated. The CBD concentration in the plasma was tested by LC-MS and the area under the curve calculate. Group one was administered with 12 mg/kg of pure CBD dissolved in “solvent” propylene glycol:ethanol 1:1 solution. Group two received the test formulation.

human lung tumors = human lung tumors implanted into rats and mice; cited from earlier work

| Compound | Cmax ([1]; Sprague-Dawley, rat, po) | AUC (Area Under the Curve of CBD in rats' plasma) [1] | reduction in tumor mass and volume (human lung tumors) | reduction of cancerous lesions in the lungs (human lung tumors) |
| --- | --- | --- | --- | --- |
| C=C(C)[C@@H]1CCC(C)=C[C@H]1c1c(O)cc(CCCCC)cc1O [CBD, cannabidiol] | 38 ng/mL | 90 ± 12 ng/mL/h |  |  |
| CCCCCc1cc(O)c2c(c1)OC(C)(C)[C@@H]1CCC(C)=C[C@@H]21 [THC, tetrahydrocannabinol] |  |  | ≤ 50% | around 60% |

— US20210212946A1, “SOLID SELF-EMULSIFYING CANNABINOID COMPOSITIONS” (ICDPHARMA LTD., priority 2018, published 2021)
